Experimental data as given in patent US20250188618A1, “AMINO ACID DERIVATIVES AND SULFUR DERIVATIVES AS BIODEGRADABLE CORROSION INHIBITORS” (ChampionX LLC, priority 2023, published 2025).

Assays:
[1] = Bubble cell test, corrosion rate by linear polarization resistance (LPR); details: during 2 hour pre-corrode, prior to the addition of corrosion inhibitor; CO2 saturated 3% NaCl brine 80% / hydrocarbon oil 20%, 65° C.
Protocol: The derivatized succinate corrosion inhibitors made according to Examples 1-5 were evaluated using bubble cell tests to assess corrosion performance using linear polarization resistance testing. The derivatized succinate corrosion inhibitors were combined with the sulfur synergist 2-mercaptoethanol in a solution so that the concentrations of corrosion inhibitor and 2-mercaptoethanol were 10% and 1% by weight, respectively. Methanol, isopropanol, water, and combinations thereof were used as solvents. Acids or bases were sometimes added either to form or neutralize salts of the inhibitors to influence their solubility. This solution was then dosed into the bubble cell at a concentration of 50 ppm, ultimately providing 5 ppm of corrosion inhibitor and 0.5 ppm of 2-mercaptoethanol. The bubble test simulates low flow areas where little or no mixing of water and oil occurs. The test was conducted using a mixed fluid composed of 80% by volume of synthetic brine composed of 3% sodium chloride and 20% of hydrocarbon oil.
The brine without inhibitor was first placed into kettles and purged with carbon dioxide for one hour resulting in carbon dioxide saturated brine. The brine was heated to 65° C., and electrodes were introduced into the de-aerated brine, followed by de-aerated oil, all of which was continually purged with carbon dioxide at 1 bar CO2 to saturate the brine for a 2 hour pre-corrode. The kettles were magnetically stirred at 100 revolutions per minute (rpm) for the duration of the test. The CO2 purge was switched to a blanket, the corrosion inhibitor solution was added, and the test timer started. Data were collected overnight for 15-hour test duration.
The corrosion rate was measured by Linear Polarization Resistance (LPR) techniques. The working electrode used was carbon steel (C1018 grade). The counter and reference electrodes were both Hastelloy. The electrodes were all cleaned and polished prior to testing. Corrosion rates were given in milli-inches per year (mpy), calculated from the current measured by LPR. Corrosion inhibition is compared to two known corrosion inhibitors: a cationic surfactant (alkylbenzyldimethylammonium chloride) and a Tall oil fatty acid (TOFA)-diethylenetriamine (DETA) imidazoline.
The bubble cell results provide a low shear screening designed for continuous application. The performance is measured as percent protection by comparing the initial corrosion rate during pre-corrode, prior to the addition of a corrosion inhibitor, to the final corrosion rate, measured 15 hours after corrosion inhibitor dosing.

[2] = Wheel box testing, corrosion inhibition persistence for batch applications; details: 1% corrosion inhibitor active in 3% NaCl, 60° C., saturated CO2 at 1 atm, 96 hour, average of 2 runs; inhibitor in neutral form
Protocol: The corrosion inhibitors were tested using wheel box testing which is a screening method for measuring corrosion inhibition persistence for batch applications. Metal coupons are dip-coated in a solution of the inhibitor in neutral form (non-salt), then placed onto a wheel and immersed in corrosive solution. The wheel is rotated in the solution under desired conditions. At regular time intervals, the solution without inhibitor is replenished. At the conclusion of the test, corrosion rates are measured as a function of the mass loss of the metal coupons.

| Compound | Initial corrosion rate (mpy) [1] | Wheel-Box, % Inhibition [2] |
| --- | --- | --- |
| CCCCCCCCCCCCSC(CC(=O)O)C(=O)[O-].[Na+] (centres unmarked) [Example 8, 2-(dodecylthio)succinic acid, monosodium salt] | 137.2 mpy | – |
| CCCCCCCCCCCCOC(=O)CC1NCCN(CCN)C1=O (centres unmarked) [Example 9, (4-(2-aminoethyl)-3-oxo-2-piperazinyl)acetic acid, dodecyl ester] | 204.3 mpy | – |
| 6,9-dioxa-3,12-diazatetradecane-1,2,13,14-tetracarboxylic acid, dioleyl ester [Example 10] | 157.2 mpy | 42% |
| N-oleylaspartic acid, iso-C11-14-alkyl ester [Example 2] | 252.4 mpy | – |
| alkylbenzyldimethylammonium chloride [Cationic surfactant control, reference compound] | 233.4 mpy | – |
| N-(oleyl)aspartic acid, 2-ethylhexyl ester [Example 4] | 213.0 mpy | 64% |
| CCCCCCCC/C=C\CCCCCCCCN[C@@H](CC(=O)O)C(=O)[O-].[K+] [Example 5, N-(oleyl)aspartic acid, monopotassium salt] | 103.3 mpy | – |
| 2-sulfosuccinic acid, iso-C11-14-alkyl ester, disodium salt [Example 6] | 186.9 mpy | – |
| N-(2-ethylhexyl)aspartic acid, 2-ethylhexyl ester [Example 3] | 248.8 mpy | 56% |
| N-(2-ethylhexyl)aspartic acid, C12-15-alkyl ester [Example 1] | 245.7 mpy | – |
| 2-(carboxymethylthio)succinic acid, iso-C11-14-alkyl ester, monosodium salt [Example 7] | 160.1 mpy | – |
